{"source": "paper PMC12320299", "about": "(Chemical Science, 2025)", "key": {"[1]": {"test_system": "SW480 cancer cells", "assay": "Proteome profiling of compound-treated SW480 cancer cells (24 h, approx. IC50, CYT and NE fractions)", "assay_type": "cell-based, human", "description": "To gain insight into potential modes of action and derive structure–activity relationships on a molecular level, proteomic profiling experiments were carried out based on label-free quantification (LFQ) by nano-liquid chromatography tandem mass spectrometry (nLC-MS/MS). […] Six replicates were used per condition. The perturbations were evaluated at subcellular resolution by fractionating cells into cytoplasmic (CYT) and nuclear (NE) protein fractions. Those have been separately proteolytically digested and analysed (Fig. 3A). The perturbations with the 3-Et-NQ and 3-Morph-NQ complexes were performed against their respective solvent-treated controls (CON), yielding a total of 72 samples. […] Statistical significance of individual protein regulations was calculated by multiple testing-corrected P-values based on 5% false discovery rate (FDR = 0.05 and S0 = 0.1).\nThe position of each group represents the summed fold-changes of the individual proteins in the group according to the subcellular space, i.e., CYT and NE fractions, while the size represents the number of proteins in each group. […]\nProteome profiling of compound-treated SW480 cancer cells […]\ncells per well and left to adhere in complete cell culture medium. After 24 h, the medium was exchanged with fresh complete medium (DMSO mock control) or fresh medium containing […]\nsolution in DMSO, respectively) and incubated for another 24 h. Each condition was carried out in hexuplicates. The cells were processed according to a nucleocytoplasmic fractionation protocol as previously described.3 All steps were performed on ice. The medium was removed, and the cells were washed twice with 1×PBS (phosphate buffered saline, 3 mL). Then, PBS was thoroughly removed. Isotonic lysis buffer (10 mM HEPES, 10 mM NaCl, 3.5 mM MgCl2, 1 mM EGTA, 0.25 M Sucrose, 0.5% Triton X-100) containing protease inhibitors (1% PMSF, Sigma, and 1% protease and phosphatase inhibitor cocktail, Roche) was added to the flasks, the cells were scraped off and transferred into labelled 15 mL Falcon tubes. The cellular membrane was ruptured using shear stress by pressing the cell suspension through a syringe 9–12 times. Membrane rupture with intact nuclei was monitored under a microscope. After centrifugation (960 g, 5 min), the supernatant containing the cytoplasmic (CYT) proteins was transferred into new tubes containing ice-cold ethanol (1 : 5, HPLC grade) and precipitated […]\novernight at –20 °C. The pellet containing the nuclei was incubated with a hypertonic solution (10 mM Tris-HCl, 1 mM EDTA and 0.5 M NaCl) and subsequently diluted 1:10 with NP-40 buffer (10 mm Tris-HCl, 1 mm EDTA and 0.5% Triton X-100) containing protease inhibitors (1% PMSF, Sigma, and 1% protease and phosphatase inhibitor cocktail, Roche). After centrifugation (960 g, 5 min), the soluble nuclear (NE) proteins were also transferred into new tubes containing ice-cold ethanol (1 : 5, HPLC grade) and precipitated overnight at –20 °C.\nThe precipitated proteins were finally pelleted by centrifugation (5000 g, 30 min, 4 °C), the solution was decanted and the pellet dried under vacuum."}, "[2]": {"test_system": "SW480", "parameters": "method as in earlier work", "conditions": "96 h incubation; ref 48 (ESI Ref. 1); cited from earlier work"}, "[3]": {"test_system": "CH1/PA-1", "parameters": "method as in Ref. 1 (ESI)", "conditions": "96 h incubation; ref Ref. 1 (ESI); cited from earlier work"}, "[4]": {"conditions": "cytoplasmic fraction, FDR = 0.05, S0 = 0.1"}, "[5]": {"conditions": "nuclear fraction, FDR = 0.05, S0 = 0.1"}}, "data": [{"smiles": "Cc1ccc(C(C)C)cc1.O=C1C(CN2CCOCC2)=C2[O][Ru][O]C2(n2cccn2)c2ccccc21", "note": "(stereo not drawn) [Compound 1b]", "values": [{"measurement": "GO BP DNA damage response, summed fold-changes", "setting": "[1]; NE fraction", "result": 22.6}, {"measurement": "GO BP DNA repair, summed fold-changes", "setting": "[1]; NE fraction", "result": 35.2}, {"measurement": "GO BP DNA replication, summed fold-changes", "setting": "[1]; NE fraction", "result": 6.1}, {"measurement": "GO BP Intracellular protein transport, summed fold-changes", "setting": "[1]; NE fraction", "result": -31.2}, {"measurement": "GO BP Mitotic cytokinesis, summed fold-changes", "setting": "[1]; NE fraction", "result": 4.0}, {"measurement": "GO BP Negative regulation of DNA-templated transcription, summed fold-changes", "setting": "[1]; NE fraction", "result": 65.6}, {"measurement": "GO BP Nucleocytoplasmic transport, summed fold-changes", "setting": "[1]; NE fraction", "result": 26.1}, {"measurement": "GO BP Positive regulation of DNA-templated transcription, summed fold-changes", "setting": "[1]; NE fraction", "result": 71.8}, {"measurement": "GO BP Proteasome-mediated ubiquitin-dependent protein catabolic process, summed fold-changes", "setting": "[1]; NE fraction", "result": 26.0}, {"measurement": "GO BP Protein folding, summed fold-changes", "setting": "[1]; NE fraction", "result": -27.7}, {"measurement": "GO BP Protein stabilization, summed fold-changes", "setting": "[1]; NE fraction", "result": -4.7}, {"measurement": "GO BP Protein transport, summed fold-changes", "setting": "[1]; NE fraction", "result": -9.8}, {"measurement": "GO BP Purine nucleotide biosynthetic process, summed fold-changes", "setting": "[1]; NE fraction", "result": -7.4}, {"measurement": "GO BP RNA splicing, summed fold-changes", "setting": "[1]; NE fraction", "result": 29.0}, {"measurement": "GO BP Regulation of apoptotic process, summed fold-changes", "setting": "[1]; NE fraction", "result": 4.6}, {"measurement": "GO BP Regulation of cell fate specification, summed fold-changes", "setting": "[1]; NE fraction", "result": 10.8}, {"measurement": "GO BP Regulation of double-strand break repair, summed fold-changes", "setting": "[1]; NE fraction", "result": 14.0}, {"measurement": "GO BP Regulation of stem cell differentiation, summed fold-changes", "setting": "[1]; NE fraction", "result": 12.8}, {"measurement": "GO BP Response to oxidative stress, summed fold-changes", "setting": "[1]; NE fraction", "result": -22.0}, {"measurement": "GO BP Ribosomal small subunit biogenesis, summed fold-changes", "setting": "[1]; NE fraction", "result": 25.3}, {"measurement": "GO BP Ribosome biogenesis, summed fold-changes", "setting": "[1]; NE fraction", "result": 6.9}, {"measurement": "GO BP Ubiquitin-dependent protein catabolic process, summed fold-changes", "setting": "[1]; NE fraction", "result": 4.9}, {"measurement": "GO BP Vesicle-mediated transport, summed fold-changes", "setting": "[1]; NE fraction", "result": -26.9}, {"measurement": "GO BP mRNA processing, summed fold-changes", "setting": "[1]; NE fraction", "result": 25.4}, {"measurement": "GO BP mRNA splicing, via spliceosome, summed fold-changes", "setting": "[1]; NE fraction", "result": 37.9}, {"measurement": "GO BP mRNA transport, summed fold-changes", "setting": "[1]; NE fraction", "result": 17.5}, {"measurement": "GO BP rRNA processing, summed fold-changes", "setting": "[1]; NE fraction", "result": 40.4}, {"measurement": "GO CC Azurophil granule lumen, summed fold-changes", "setting": "[1]; NE fraction", "result": -24.9}, {"measurement": "GO CC Chromatin, summed fold-changes", "setting": "[1]; NE fraction", "result": 92.4}, {"measurement": "GO CC Chromosome, centromeric region, summed fold-changes", "setting": "[1]; NE fraction", "result": 9.3}, {"measurement": "GO CC Chromosome, summed fold-changes", "setting": "[1]; NE fraction", "result": 28.8}, {"measurement": "GO CC Chromosome, telomeric region, summed fold-changes", "setting": "[1]; NE fraction", "result": 30.4}, {"measurement": "GO CC Condensin complex, summed fold-changes", "setting": "[1]; NE fraction", "result": 1.4}, {"measurement": "GO CC Cytoskeleton, summed fold-changes", "setting": "[1]; NE fraction", "result": -23.7}, {"measurement": "GO CC Endosome, summed fold-changes", "setting": "[1]; NE fraction", "result": -21.5}, {"measurement": "GO CC Extracellular exosome, summed fold-changes", "setting": "[1]; NE fraction", "result": -325.4}, {"measurement": "GO CC Fibrillar center, summed fold-changes", "setting": "[1]; NE fraction", "result": 22.1}, {"measurement": "GO CC Ficolin-1-rich granule lumen, summed fold-changes", "setting": "[1]; NE fraction", "result": -29.3}, {"measurement": "GO CC Focal adhesion, summed fold-changes", "setting": "[1]; NE fraction", "result": -55.9}, {"measurement": "GO CC Intracellular membrane-bounded organelle, summed fold-changes", "setting": "[1]; NE fraction", "result": -21.7}, {"measurement": "GO CC Kinetochore, summed fold-changes", "setting": "[1]; NE fraction", "result": 23.6}, {"measurement": "GO CC Lipid droplet, summed fold-changes", "setting": "[1]; NE fraction", "result": -14.4}, {"measurement": "GO CC Lysosome, summed fold-changes", "setting": "[1]; NE fraction", "result": -44.7}, {"measurement": "GO CC Microtubule cytoskeleton, summed fold-changes", "setting": "[1]; NE fraction", "result": -18.2}, {"measurement": "GO CC Mitochondrion, summed fold-changes", "setting": "[1]; NE fraction", "result": -134.2}, {"measurement": "GO CC Nuclear envelope, summed fold-changes", "setting": "[1]; NE fraction", "result": 21.5}, {"measurement": "GO CC Nuclear speck, summed fold-changes", "setting": "[1]; NE fraction", "result": 55.6}, {"measurement": "GO CC Nucleolus, summed fold-changes", "setting": "[1]; NE fraction", "result": 104.6}, {"measurement": "GO CC Nucleoplasm, summed fold-changes", "setting": "[1]; NE fraction", "result": 270.4}, {"measurement": "GO CC Nucleus, summed fold-changes", "setting": "[1]; NE fraction", "result": 135.2}, {"measurement": "GO CC Proteasome complex, summed fold-changes", "setting": "[1]; NE fraction", "result": 12.2}, {"measurement": "GO CC Protein-containing complex, summed fold-changes", "setting": "[1]; NE fraction", "result": -21.9}, {"measurement": "GO CC Ribonucleoprotein complex, summed fold-changes", "setting": "[1]; NE fraction", "result": 3.5}, {"measurement": "GO CC SCAR complex, summed fold-changes", "setting": "[1]; NE fraction", "result": -6.0}, {"measurement": "GO CC Small-subunit processome, summed fold-changes", "setting": "[1]; NE fraction", "result": 29.5}, {"measurement": "GO CC Spliceosomal complex, summed fold-changes", "setting": "[1]; NE fraction", "result": 22.0}, {"measurement": "GO CC Transcription repressor complex, summed fold-changes", "setting": "[1]; NE fraction", "result": 12.8}, {"measurement": "GO CC Vesicle, summed fold-changes", "setting": "[1]; NE fraction", "result": -24.1}, {"measurement": "KEGG pathway ATP-dependent chromatin remodeling, summed fold-changes", "setting": "[1]; NE fraction", "result": 35.8}, {"measurement": "KEGG pathway Apoptosis, summed fold-changes", "setting": "[1]; NE fraction", "result": -20.6}, {"measurement": "KEGG pathway Basal transcription factors, summed fold-changes", "setting": "[1]; NE fraction", "result": 10.6}, {"measurement": "KEGG pathway Biosynthesis of amino acids, summed fold-changes", "setting": "[1]; NE fraction", "result": -32.4}, {"measurement": "KEGG pathway Biosynthesis of cofactors, summed fold-changes", "setting": "[1]; NE fraction", "result": -31.7}, {"measurement": "KEGG pathway Cell cycle, summed fold-changes", "setting": "[1]; NE fraction", "result": 19.2}, {"measurement": "KEGG pathway Nucleocytoplasmic transport, summed fold-changes", "setting": "[1]; NE fraction", "result": 34.5}, {"measurement": "KEGG pathway Polycomb repressive complex, summed fold-changes", "setting": "[1]; NE fraction", "result": 17.0}, {"measurement": "KEGG pathway Proteasome, summed fold-changes", "setting": "[1]; NE fraction", "result": 16.8}, {"measurement": "KEGG pathway Ribosome biogenesis in eukaryotes, summed fold-changes", "setting": "[1]; NE fraction", "result": 28.9}, {"measurement": "N° proteins down-regulated, CYT", "setting": "[1]; [4]", "result": 8}, {"measurement": "N° proteins upregulated, CYT", "setting": "[1]; [4]", "result": 8}, {"measurement": "N° proteins down-regulated, NE", "setting": "[1]; [5]", "result": 772}, {"measurement": "N° proteins upregulated, NE", "setting": "[1]; [5]", "result": 710}, {"measurement": "regulated proteins in CYT", "setting": "[1]; up- and down-regulated", "result": 16}, {"measurement": "IC50", "setting": "[2]", "result": "33 ± 2", "unit": "µM"}, {"measurement": "IC50", "setting": "[3]", "result": "150 ± 20", "unit": "µM"}]}]}
